Experimental data from paper PMC11233931, “Remodeling tumor‐associated macrophage for anti‐cancer effects by rational design of irreversible inhibition of mitogen‐activated protein kinase‐activated protein kinase 2” (MedComm, 2024).

Experiments:
Assay in all cases: Eurofins kinase selectivity profile against 380 other human recombinant kinases (Table S2)
Format in all cases: biochemical
[1] = target: T1, 380 human recombinant protein kinases (Homo sapiens, UniProt O60674); conditions: JAK2(h), read-out: Inhibition rate
T1 construct: purchased Eurofins (Celle Lévescault)
Protocol: (§1) Subsequently, to ascertain whether the high potency of compound 11 was specific for MK2, an additional 380 human recombinant protein kinases were screened.
(§2) To assess the impact of various compounds on MK2 kinase activity, we utilized the ADP‐Glo Assay Kit (Promega) following the manufacturer's instructions. Luminescence measurements were taken using a SpectraMax Paradigm reader. The inhibition percentage was calculated using the following formula: ((specific signalDMSO control − specific signal inhibitor)/(specific signalDMSO control)) × 100%. The IC50 values were determined employing dose–response curve fitting via Prism (Graph Pad). Additionally, Eurofins company (Celle Lévescault) conducted the analysis on compound 11’s inhibitory activity against 380 other human recombinant kinases at various concentrations.

[2] = target: T2, 380 human recombinant protein kinases (Homo sapiens, UniProt O75116); conditions: ROCK-II(h), read-out: Inhibition rate
T2 construct: purchased Eurofins (Celle Lévescault)
Protocol: as §1, §2

[3] = target: T3, 380 human recombinant protein kinases (Homo sapiens, UniProt P08581); conditions: Met(h), read-out: Inhibition rate
T3 construct: purchased Eurofins (Celle Lévescault)
Protocol: as §1, §2

[4] = target: T4, 380 human recombinant protein kinases (Homo sapiens, UniProt P11802); conditions: CDK4/cyclinD3(h), read-out: Inhibition rate
T4 construct: purchased Eurofins (Celle Lévescault)
Protocol: as §1, §2

[5] = target: T5, 380 human recombinant protein kinases (Homo sapiens, UniProt P34947); conditions: GRK5(h), read-out: Inhibition rate
T5 construct: purchased Eurofins (Celle Lévescault)
Protocol: as §1, §2

[6] = target: T6, 380 human recombinant protein kinases (Homo sapiens, UniProt P49841); conditions: GSK3β(h), read-out: Inhibition rate
T6 construct: purchased Eurofins (Celle Lévescault)
Protocol: as §1, §2

[7] = target: T7, 380 human recombinant protein kinases (Homo sapiens, UniProt P53667); conditions: LIMK1(h), read-out: Inhibition rate
T7 construct: purchased Eurofins (Celle Lévescault)
Protocol: as §1, §2

[8] = target: T8, 380 human recombinant protein kinases (Homo sapiens, UniProt Q06418); conditions: Rse(h), read-out: Inhibition rate
T8 construct: purchased Eurofins (Celle Lévescault)
T8 sequence (Q06418 41-890): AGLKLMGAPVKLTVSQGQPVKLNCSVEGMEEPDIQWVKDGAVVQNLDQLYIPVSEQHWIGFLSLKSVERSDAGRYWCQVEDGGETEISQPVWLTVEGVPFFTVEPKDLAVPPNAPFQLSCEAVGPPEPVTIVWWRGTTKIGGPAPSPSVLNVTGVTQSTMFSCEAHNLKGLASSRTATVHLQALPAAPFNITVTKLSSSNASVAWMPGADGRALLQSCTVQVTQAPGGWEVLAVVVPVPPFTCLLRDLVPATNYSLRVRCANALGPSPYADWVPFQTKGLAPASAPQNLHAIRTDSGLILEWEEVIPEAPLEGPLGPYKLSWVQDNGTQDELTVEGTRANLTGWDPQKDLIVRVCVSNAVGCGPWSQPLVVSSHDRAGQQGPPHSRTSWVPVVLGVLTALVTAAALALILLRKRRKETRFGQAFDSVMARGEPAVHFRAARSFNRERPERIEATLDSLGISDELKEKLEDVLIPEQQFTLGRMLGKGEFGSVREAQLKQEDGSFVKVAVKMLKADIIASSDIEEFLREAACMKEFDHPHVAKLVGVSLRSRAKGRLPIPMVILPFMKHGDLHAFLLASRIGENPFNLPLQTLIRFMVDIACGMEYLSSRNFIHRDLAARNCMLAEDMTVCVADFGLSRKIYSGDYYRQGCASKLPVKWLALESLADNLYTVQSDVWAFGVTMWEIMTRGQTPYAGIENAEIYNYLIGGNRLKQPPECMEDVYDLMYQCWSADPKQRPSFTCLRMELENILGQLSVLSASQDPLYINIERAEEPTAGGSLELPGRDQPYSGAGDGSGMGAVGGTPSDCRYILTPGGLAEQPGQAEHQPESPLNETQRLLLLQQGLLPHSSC
Protocol: as §1, §2

[9] = target: T9, 380 human recombinant protein kinases (Homo sapiens, UniProt Q07912); conditions: ACK1(h), read-out: Inhibition rate
T9 construct: purchased Eurofins (Celle Lévescault)
Protocol: as §1, §2

[10] = target: T10, 380 human recombinant protein kinases (Homo sapiens, UniProt Q13153); conditions: PAK1(h), read-out: Inhibition rate
T10 construct: purchased Eurofins (Celle Lévescault)
Protocol: as §1, §2

[11] = target: T11, 380 human recombinant protein kinases (Homo sapiens, UniProt Q86UE8); conditions: TLK2(h), read-out: Inhibition rate (%)
T11 construct: purchased Eurofins (Celle Lévescault)
Protocol: as §1, §2

[12] = target: T12, 380 human recombinant protein kinases (Homo sapiens, UniProt Q8N568); conditions: DCAMKL2(h), read-out: Inhibition rate
T12 construct: purchased Eurofins (Celle Lévescault)
Protocol: as §1, §2

[13] = target: T13, 380 human recombinant protein kinases (Homo sapiens, UniProt Q9H4A3); conditions: WNK1(h), read-out: Inhibition rate (%)
T13 construct: purchased Eurofins (Celle Lévescault)
Protocol: as §1, §2

[14] = target: T14, 380 human recombinant protein kinases (Homo sapiens, UniProt Q9Y2K2); conditions: SIK3(h), read-out: Inhibition rate (%)
T14 construct: purchased Eurofins (Celle Lévescault)
Protocol: as §1, §2

T11 sequence (Q86UE8 whole entry): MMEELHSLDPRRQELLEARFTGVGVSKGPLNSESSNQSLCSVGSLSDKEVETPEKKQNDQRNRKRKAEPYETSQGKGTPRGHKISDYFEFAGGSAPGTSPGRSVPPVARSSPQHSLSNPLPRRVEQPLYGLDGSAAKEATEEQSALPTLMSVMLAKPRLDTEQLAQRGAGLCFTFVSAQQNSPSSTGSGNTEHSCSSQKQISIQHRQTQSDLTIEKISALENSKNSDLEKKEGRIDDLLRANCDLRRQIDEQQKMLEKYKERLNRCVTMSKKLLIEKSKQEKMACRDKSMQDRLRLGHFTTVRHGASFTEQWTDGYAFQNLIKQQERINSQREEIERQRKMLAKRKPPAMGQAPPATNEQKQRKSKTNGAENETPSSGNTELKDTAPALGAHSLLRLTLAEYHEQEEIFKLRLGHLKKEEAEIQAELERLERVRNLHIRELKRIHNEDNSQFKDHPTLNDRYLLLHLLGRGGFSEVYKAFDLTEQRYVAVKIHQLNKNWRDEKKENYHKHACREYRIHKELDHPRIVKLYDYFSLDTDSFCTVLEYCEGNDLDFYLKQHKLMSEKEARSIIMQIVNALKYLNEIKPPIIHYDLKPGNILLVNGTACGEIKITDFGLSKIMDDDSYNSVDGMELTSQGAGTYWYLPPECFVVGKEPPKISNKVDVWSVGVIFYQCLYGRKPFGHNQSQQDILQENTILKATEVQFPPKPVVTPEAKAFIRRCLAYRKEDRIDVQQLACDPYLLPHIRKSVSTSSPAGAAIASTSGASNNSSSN
T5 sequence (P34947 whole entry): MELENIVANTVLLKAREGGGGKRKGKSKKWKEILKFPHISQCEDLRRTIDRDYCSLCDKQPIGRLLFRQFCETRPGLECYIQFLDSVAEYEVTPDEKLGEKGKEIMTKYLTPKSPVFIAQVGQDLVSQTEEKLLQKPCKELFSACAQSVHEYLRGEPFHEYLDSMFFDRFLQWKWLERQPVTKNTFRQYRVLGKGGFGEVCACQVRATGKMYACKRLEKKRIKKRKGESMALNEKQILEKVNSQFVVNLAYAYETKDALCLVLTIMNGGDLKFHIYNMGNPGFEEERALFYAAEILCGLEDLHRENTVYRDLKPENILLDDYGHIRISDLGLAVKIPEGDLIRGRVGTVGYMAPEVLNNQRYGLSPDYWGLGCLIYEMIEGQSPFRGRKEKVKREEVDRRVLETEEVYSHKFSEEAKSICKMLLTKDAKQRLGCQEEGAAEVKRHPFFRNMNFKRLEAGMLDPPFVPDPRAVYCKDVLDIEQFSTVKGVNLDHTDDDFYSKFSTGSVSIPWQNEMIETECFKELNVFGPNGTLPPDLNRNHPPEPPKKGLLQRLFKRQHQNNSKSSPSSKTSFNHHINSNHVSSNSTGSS
T2 sequence (O75116 whole entry): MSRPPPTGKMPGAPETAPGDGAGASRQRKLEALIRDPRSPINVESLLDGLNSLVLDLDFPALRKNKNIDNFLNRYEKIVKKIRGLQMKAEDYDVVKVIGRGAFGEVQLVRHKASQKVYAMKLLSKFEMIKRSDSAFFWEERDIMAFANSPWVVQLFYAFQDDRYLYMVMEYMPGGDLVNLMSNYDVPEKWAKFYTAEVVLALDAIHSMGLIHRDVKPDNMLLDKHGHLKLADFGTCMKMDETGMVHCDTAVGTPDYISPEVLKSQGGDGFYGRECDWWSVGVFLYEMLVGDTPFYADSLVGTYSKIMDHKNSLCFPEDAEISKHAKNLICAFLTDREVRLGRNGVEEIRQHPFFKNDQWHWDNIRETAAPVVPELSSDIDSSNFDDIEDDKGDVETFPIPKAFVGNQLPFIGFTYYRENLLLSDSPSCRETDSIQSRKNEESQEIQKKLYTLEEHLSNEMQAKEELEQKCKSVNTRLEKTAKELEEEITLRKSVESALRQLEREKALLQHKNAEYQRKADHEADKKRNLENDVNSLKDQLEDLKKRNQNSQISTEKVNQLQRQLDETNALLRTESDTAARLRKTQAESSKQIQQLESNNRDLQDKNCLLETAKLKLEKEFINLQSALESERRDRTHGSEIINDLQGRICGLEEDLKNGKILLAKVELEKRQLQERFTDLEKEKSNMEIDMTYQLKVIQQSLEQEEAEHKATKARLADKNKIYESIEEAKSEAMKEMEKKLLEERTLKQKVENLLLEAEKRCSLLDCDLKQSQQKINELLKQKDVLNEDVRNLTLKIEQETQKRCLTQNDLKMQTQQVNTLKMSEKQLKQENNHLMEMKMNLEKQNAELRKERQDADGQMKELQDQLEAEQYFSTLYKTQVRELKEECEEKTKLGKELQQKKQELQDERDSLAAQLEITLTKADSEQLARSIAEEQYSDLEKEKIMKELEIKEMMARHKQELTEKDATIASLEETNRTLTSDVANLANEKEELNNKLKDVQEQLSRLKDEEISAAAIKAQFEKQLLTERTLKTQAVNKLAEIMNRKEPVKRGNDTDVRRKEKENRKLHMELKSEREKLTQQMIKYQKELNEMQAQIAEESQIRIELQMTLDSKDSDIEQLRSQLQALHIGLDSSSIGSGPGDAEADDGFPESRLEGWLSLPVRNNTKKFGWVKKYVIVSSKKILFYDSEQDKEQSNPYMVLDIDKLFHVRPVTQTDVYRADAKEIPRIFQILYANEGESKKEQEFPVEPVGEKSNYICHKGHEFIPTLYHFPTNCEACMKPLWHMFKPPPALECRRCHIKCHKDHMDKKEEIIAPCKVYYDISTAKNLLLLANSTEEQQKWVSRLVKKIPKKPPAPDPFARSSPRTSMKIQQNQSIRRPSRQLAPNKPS
T3 sequence (P08581 25-1390): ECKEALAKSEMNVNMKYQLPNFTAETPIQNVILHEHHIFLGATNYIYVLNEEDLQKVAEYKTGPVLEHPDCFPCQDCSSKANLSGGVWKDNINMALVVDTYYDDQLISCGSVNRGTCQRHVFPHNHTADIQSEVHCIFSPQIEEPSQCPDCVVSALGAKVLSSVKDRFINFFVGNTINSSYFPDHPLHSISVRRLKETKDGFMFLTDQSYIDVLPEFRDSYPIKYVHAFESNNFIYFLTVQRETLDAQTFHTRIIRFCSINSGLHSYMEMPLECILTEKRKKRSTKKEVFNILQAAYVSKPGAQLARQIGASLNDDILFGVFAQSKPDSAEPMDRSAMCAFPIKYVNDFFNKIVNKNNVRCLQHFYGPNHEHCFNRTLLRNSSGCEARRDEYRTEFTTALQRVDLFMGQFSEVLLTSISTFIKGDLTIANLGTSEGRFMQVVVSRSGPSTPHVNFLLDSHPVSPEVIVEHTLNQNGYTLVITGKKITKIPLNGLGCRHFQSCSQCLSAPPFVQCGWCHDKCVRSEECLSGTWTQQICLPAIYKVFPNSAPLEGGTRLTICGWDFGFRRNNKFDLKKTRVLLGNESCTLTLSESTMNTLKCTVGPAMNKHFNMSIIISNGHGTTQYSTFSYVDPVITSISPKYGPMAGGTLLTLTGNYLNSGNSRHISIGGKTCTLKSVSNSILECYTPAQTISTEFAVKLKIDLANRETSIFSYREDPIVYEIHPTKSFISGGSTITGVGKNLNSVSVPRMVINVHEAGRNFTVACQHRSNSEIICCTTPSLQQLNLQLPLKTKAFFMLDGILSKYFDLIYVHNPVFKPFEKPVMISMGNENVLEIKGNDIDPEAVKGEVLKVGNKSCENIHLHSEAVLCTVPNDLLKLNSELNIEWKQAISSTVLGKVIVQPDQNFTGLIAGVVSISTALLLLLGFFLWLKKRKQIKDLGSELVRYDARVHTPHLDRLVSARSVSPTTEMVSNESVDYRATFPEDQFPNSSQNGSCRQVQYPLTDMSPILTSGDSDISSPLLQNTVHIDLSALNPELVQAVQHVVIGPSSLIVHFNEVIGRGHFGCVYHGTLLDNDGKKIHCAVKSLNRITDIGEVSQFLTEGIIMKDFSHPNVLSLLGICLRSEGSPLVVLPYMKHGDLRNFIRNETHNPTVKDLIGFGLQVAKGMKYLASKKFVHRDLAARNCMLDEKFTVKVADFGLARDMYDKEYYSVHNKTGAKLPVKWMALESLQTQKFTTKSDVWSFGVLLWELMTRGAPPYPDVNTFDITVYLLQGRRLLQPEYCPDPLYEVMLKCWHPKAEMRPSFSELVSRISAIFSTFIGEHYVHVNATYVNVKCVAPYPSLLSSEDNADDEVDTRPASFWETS
T10 sequence (Q13153 whole entry): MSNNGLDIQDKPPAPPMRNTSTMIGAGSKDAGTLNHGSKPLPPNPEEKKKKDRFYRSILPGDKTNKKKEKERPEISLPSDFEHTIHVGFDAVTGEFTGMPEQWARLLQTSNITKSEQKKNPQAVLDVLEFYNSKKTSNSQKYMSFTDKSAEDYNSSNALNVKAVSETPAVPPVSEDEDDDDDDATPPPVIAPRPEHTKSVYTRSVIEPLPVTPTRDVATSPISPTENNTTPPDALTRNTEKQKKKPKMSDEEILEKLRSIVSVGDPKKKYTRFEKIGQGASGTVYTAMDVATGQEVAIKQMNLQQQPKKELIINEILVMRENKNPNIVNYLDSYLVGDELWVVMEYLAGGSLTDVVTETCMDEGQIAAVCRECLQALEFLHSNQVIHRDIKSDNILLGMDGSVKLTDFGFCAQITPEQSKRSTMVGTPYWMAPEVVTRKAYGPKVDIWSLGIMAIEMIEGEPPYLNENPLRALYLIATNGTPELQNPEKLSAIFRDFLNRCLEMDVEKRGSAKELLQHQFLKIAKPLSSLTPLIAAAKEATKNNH
T6 sequence (P49841 whole entry): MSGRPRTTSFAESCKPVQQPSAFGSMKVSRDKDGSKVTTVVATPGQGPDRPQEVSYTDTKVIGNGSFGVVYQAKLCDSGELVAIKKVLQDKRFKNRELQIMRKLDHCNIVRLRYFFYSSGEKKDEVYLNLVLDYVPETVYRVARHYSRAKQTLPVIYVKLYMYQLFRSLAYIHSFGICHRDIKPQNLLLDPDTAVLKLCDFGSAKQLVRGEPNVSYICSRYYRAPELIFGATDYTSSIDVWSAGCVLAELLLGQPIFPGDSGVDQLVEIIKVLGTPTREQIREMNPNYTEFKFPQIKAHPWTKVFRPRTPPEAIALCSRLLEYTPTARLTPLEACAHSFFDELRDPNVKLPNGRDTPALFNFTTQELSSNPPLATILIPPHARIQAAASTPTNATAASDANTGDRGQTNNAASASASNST

C=CC(=O)Nc1cc(-c2cc(-c3cc4c([nH]3)CCNC4=O)ccn2)ccc1OC(F)(F)F [compound 11]
inhibition at 0.01 µM ([1]; 10 nM): -6% | inhibition at 0.1 µM ([1]; 100 nM): -10% | inhibition at 1 µM ([1]; 1000 nM): -8% | inhibition at 0.01 µM ([2]; 10 nM): -3% | inhibition at 0.1 µM ([2]; 100 nM): 0% | inhibition at 1 µM ([2]; 1000 nM): -6% | inhibition at 0.01 µM ([3]; 10 nM): 6% | inhibition at 0.1 µM ([3]; 100 nM): 21% | inhibition at 1 µM ([3]; 1000 nM): 62% | inhibition at 0.01 µM ([4]; 10 nM): 3% | inhibition at 0.1 µM ([4]; 100 nM): 0% | inhibition at 1 µM ([4]; 1000 nM): 2% | inhibition at 0.01 µM ([5]; 10 nM): -6% | inhibition at 0.1 µM ([5]; 100 nM): -2% | inhibition at 1 µM ([5]; 1000 nM): 0% | inhibition at 0.01 µM ([6]; 10 nM): -10% | inhibition at 0.1 µM ([6]; 100 nM): -7% | inhibition at 1 µM ([6]; 1000 nM): 5% | inhibition at 0.01 µM ([7]; 10 nM): -5% | inhibition at 0.1 µM ([7]; 100 nM): -2% | inhibition at 1 µM ([7]; 1000 nM): -2% | inhibition at 0.01 µM ([8]; 10 nM): 7% | inhibition at 0.1 µM ([8]; 100 nM): -3% | inhibition at 1 µM ([8]; 1000 nM): -5% | inhibition at 0.01 µM ([9]; 10 nM): 1% | inhibition at 0.1 µM ([9]; 100 nM): 2% | inhibition at 1 µM ([9]; 1000 nM): 3% | inhibition at 0.01 µM ([10]; 10 nM): -10% | inhibition at 0.1 µM ([10]; 100 nM): -7% | inhibition at 1 µM ([10]; 1000 nM): -5% | inhibition at 0.01 µM ([11]; 10 nM): 13% | inhibition at 0.1 µM ([11]; 100 nM): 1% | inhibition at 1 µM ([11]; 1000 nM): -2% | inhibition at 0.01 µM ([12]; 10 nM): 4% | inhibition at 0.1 µM ([12]; 100 nM): 4% | inhibition at 1 µM ([12]; 1000 nM): 4% | inhibition at 0.01 µM ([13]; 10 nM): 6% | inhibition at 0.1 µM ([13]; 100 nM): 2% | inhibition at 1 µM ([13]; 1000 nM): 4% | inhibition at 0.01 µM ([14]; 10 nM): 6% | inhibition at 0.1 µM ([14]; 100 nM): 1% | inhibition at 1 µM ([14]; 1000 nM): 12%
